Source: patent publication US20220184071A1, “GEPOTIDACIN FOR USE IN THE TREATMENT OF BACTERIAL URINARY TRACT INFECTIONS” (GlaxoSmithKline Intellectual Property Development Limited, priority 2019, published 2022)
≈ marks a conversion by molar mass, not a printed value. Where two headings read alike, the source gives them in different places.

Tests used:
S. epidermidis = assay: MIC by CLSI broth microdilution, Example 5 second study (skin and soft tissue isolates); type: cell-based; details: Staphylococcus epidermidis; 13 isolates, 2013-2014
Description: (§1) A second study tested gepotidacin by CLSI broth microdilution against bacterial isolates collected from patients with acute bacterial skin and soft tissue infections between 2013-2014. Amoxicillin/clavulanic acid, linezolid, fusidic acid, ceftriaxone, ceftaroline, vancomycin, penicillin, quinupristin/dalfopristin, erythromycin, clindamycin, meropenem, tetracycline, chloramphenicol, flucloxacillin, telavancin, daptomycin, trimethoprim/sulfamethoxazole, gentamicin, levofloxacin, tigecycline and cefuroxime were included as comparators. MICs were determined by broth microdilution according to CLSI methods.

S. anginosus = assay: MIC by CLSI broth microdilution, Example 5 second study; type: cell-based; details: Streptococcus anginosus; 10 isolates, 2013-2014
Description: as §1

viridans streptococci = assay: as above; type: cell-based; details: 19 isolates, 2013-2014
Description: as §1

E. coli [1] = assay: Phase IIa baseline uropathogen susceptibility testing (CLSI broth microdilution); type: cell-based, Escherichia coli; details: Escherichia coli, read-out: GEP MIC
Description: (§2) This phase IIa single center study evaluated the safety, tolerability, pharmacokinetics, and efficacy of oral gepotidacin 1500 mg BID for 5 days in female subjects with acute cystitis. Clean catch mid-stream urine specimens were obtained for quantitative culture by standard methods. Urine samples were taken from all participants pre-treatment (baseline) and at all post-baseline visits. All urine samples were sent to a central laboratory (PPD Global Clinical Laboratories, Highland Heights, Ky., USA) for Gram stain, quantitative culture, pathogen identification and susceptibility testing. See FIG. 1 for participant disposition and study outline.
(§3) Susceptibility testing by CLSI broth microdilution and gradient diffusion (fosfomycin only) was conducted (CLSI, 2015, Methods for dilution antimicrobial susceptibility tests for bacteria that grow aerobically; approved standard-tenth edition; and CLSI, 2018. Performance Standards for Antimicrobial Susceptibility Testing; Twenty-seventh Informational Supplement M100-S28). Inclusion in the microbiological intent-to-treat population (micro-ITT), required growth of a qualifying baseline uropathogen (≥10^5 CFU/mL). See FIG. 2 for the baseline algorithm.

E. coli [2] = assay: Neutropenic mouse thigh infection model PK/PD; type: in vivo
Description: PK and PD studies using gepotidacin were conducted in murine (male CD-1 mice) thigh and kidney infections. The administered doses ranged from 1 to 200 mg/kg SC every 6 hours starting 1h post infection. Infected tissues were evaluated for bacterial burden at 24 h post infection (baseline controls at 1 h post infection).
Efficacy was determined against E. coli ALL, 997577, ATCC25922, IR5 and NCTC13441 (MICs of 1 to 4 μg/mL) in thigh-infected neutropenic (I−) mice and against E. coli ALL in kidney-infected immunocompetent (I+) and I− mice. The PopPK model was used to determine GEP exposures associated with efficacy. PK-PD analyses were conducted using Phoenix WinNonLin 6.3 (Pharsight). The change in login colony forming units (CFU) from baseline were correlated with free drug (f) AUC:MIC using an inhibitory model from the Phoenix library, and model parameter values for each isolate were used to calculate the plasma fAUC:MIC associated with stasis, 1- or 2-login reductions in CFU.
PD studies were conducted using thigh and/or kidney infection models in neutropenic or competent mice (N=5/group). Mice were infected with a bacterial suspension in log phase: 100 μL in the left thigh muscle or 50 μL in each of both kidneys (100 μl total). Final inocula across all isolates were 6.0 to 7.0 login CFU/mouse. Dose-ranging studies were conducted with 5 isolates (see Table 1). Starting 1 hr after infection, GEP was given SC (0.2 mL/mouse) at discrete doses of 1-200 mg/kg every 6 hours (q6) for a 24-hour period (4 doses in total). Mice were euthanized 24 hr after start of therapy (6 hr after the last dose), and infected thighs or kidneys were processed to determine viable bacterial counts (CFU). Baseline CFU were obtained from untreated mice at 1 hr post infection and growth control CFU from saline-treated mice at 24 hr.
NCA analyses were conducted with the simulated data.
PK-PD analysis was conducted using Phoenix WinNonLin 6.3 (Pharsight): • Log10 colony forming units (CFU) from each group were correlated with PK-PD parameters using several inhibitory models from the Phoenix library. • Model parameter values for each isolate were used to calculate the PK-PD parameter value associated with stasis, 1-log or 2-log reductions from baseline 1 h controls.

S. saprophyticus = assay: Phase IIa baseline uropathogen susceptibility testing (CLSI broth microdilution); type: cell-based; details: Staphylococcus saprophyticus; Participant 8; read-out: GEP MIC
Description: as §2, §3

qualifying uropathogens = assay: as above; type: cell-based; details: 8 qualifying baseline uropathogens
Description: as §2, §3

E. coli [3] = assay: MIC of the isolates used in the murine models; type: cell-based, Escherichia coli
[4] = 5 E. coli isolates, listed as Gepotidacin

O=c1ccc2ncc(=O)n3c2n1C[C@H]3CN1CCC(NCc2cc3c(cn2)OCCC3)CC1 [gepotidacin, (2R)-2-({4-[(3,4-dihydro-2H-pyrano[2,3-c]pyridin-6-ylmethyl)amino]-1-piperidinyl}methyl)-1,2-dihydro-3H,8H-2a,5,8a-triazaacenaphthylene-3,8-dione]
MIC90 (S. epidermidis): 0.25 µg/mL (≈ 0.557 µM)
MIC90 (S. anginosus): 1 µg/mL (≈ 2.23 µM)
MIC90 (viridans streptococci): 0.5 µg/mL (≈ 1.11 µM)
MIC (E. coli [1]; Participant 2): 2 µg/mL (≈ 4.46 µM)
MIC (E. coli [1]; Participant 3): 0.5 µg/mL (≈ 1.11 µM)
MIC (E. coli [1]; Participant 4): 2 µg/mL (≈ 4.46 µM)
MIC (E. coli [1]; Participant 5, MDR and fluoroquinolone-resistant): 1 µg/mL (≈ 2.23 µM)
MIC (E. coli [1]; Participant 6, MDR): 2 µg/mL (≈ 4.46 µM)
Median daily plasma fAUC/MIC for 1-log Drop (E. coli [2]; 5 E. coli isolates): 16
Median daily plasma fAUC/MIC for 2-log Drop (E. coli [2]; 5 E. coli isolates): 25
Median daily plasma fAUC/MIC for stasis (E. coli [2]; 5 E. coli isolates): 11
range of plasma fAUC:MIC ratios for 1-log10 reduction in CFU (E. coli [2]; 5 E. coli isolates): 4-25
range of plasma fAUC:MIC ratios for 2-log10 reduction in CFU (E. coli [2]; 5 E. coli isolates): 7-40
range of plasma fAUC:MIC ratios for stasis (E. coli [2]; 5 E. coli isolates): 3-17
Median daily plasma fAUC/MIC for 1-log Drop (E. coli [2]; [4]): 16.0
Median daily plasma fAUC/MIC for 2-log Drop (E. coli [2]; [4]): 25.4
Median daily plasma fAUC/MIC for stasis (E. coli [2]; [4]): 10.6
Daily fAUC/MIC for 1-log Drop, Mean ± SD (E. coli [2]; 5 strains): 14.6 ± 9.0
Daily fAUC/MIC for 2-log Drop, Mean ± SD (E. coli [2]; 5 strains): 22.9 ± 12.8
Daily fAUC/MIC for Stasis, Mean ± SD (E. coli [2]; 5 strains): 9.9 ± 6.8
Daily fAUC/MIC for 1-log Drop (E. coli [2]; Strain 997577): 16.0
Daily fAUC/MIC for 2-log Drop (E. coli [2]; Strain 997577): 25.4
Daily fAUC/MIC for Stasis (E. coli [2]; Strain 997577): 10.6
Daily fAUC/MIC for 1-log Drop (E. coli [2]; Strain ALL, Neutropenic Thigh): 6.5
Daily fAUC/MIC for 2-log Drop (E. coli [2]; Strain ALL, Neutropenic Thigh): 13.8
Daily fAUC/MIC for Stasis (E. coli [2]; Strain ALL, Neutropenic Thigh): 3.0
Daily fAUC/MIC for 1-log Drop (E. coli [2]; Strain ATCC25922): 21.5
Daily fAUC/MIC for 2-log Drop (E. coli [2]; Strain ATCC25922): 27.6
Daily fAUC/MIC for Stasis (E. coli [2]; Strain ATCC25922): 16.8
Daily fAUC/MIC for 1-log Drop (E. coli [2]; Strain IR5): 4.3
Daily fAUC/MIC for 2-log Drop (E. coli [2]; Strain IR5): 7.2
Daily fAUC/MIC for Stasis (E. coli [2]; Strain IR5): 2.8
Daily fAUC/MIC for 1-log Drop (E. coli [2]; Strain NCTC13441): 24.9
Daily fAUC/MIC for 2-log Drop (E. coli [2]; Strain NCTC13441): 40.3
Daily fAUC/MIC for Stasis (E. coli [2]; Strain NCTC13441): 16.2
Median plasma fAUC:MIC targets ranged (E. coli [2]; stasis to 2-log10 reduction): 11 to 25
MIC (S. saprophyticus): 0.06 µg/mL (≈ 0.134 µM)
Gepotidacin MICs ranged (qualifying uropathogens): 0.06 to 4 µg/mL
range of MICs (E. coli [3]; 5 isolates: ALL, 997577, ATCC25922, IR5, NCTC13441): 1 to 4 µg/mL
Gepotidacin MIC (E. coli [3]; Strain 997577): 2 µg/mL
Gepotidacin MIC (E. coli [3]; Strain ALL): 4 µg/mL
Gepotidacin MIC (E. coli [3]; Strain ATCC25922): 1 µg/mL
Gepotidacin MIC (E. coli [3]; Strain IR5): 4 µg/mL
Gepotidacin MIC (E. coli [3]; Strain NCTC13441): 2 µg/mL
